Measurements taken from the supplement of paper PMC10307832.

Experiments:
Assay in all cases: relative viability (nuclei count vs DMSO), 5 days (fraction); higher = more cells survive
KIN001-266 = compound: CCN1CCC(CC1)N2C=C(N=N2)CNC3=CC4=C(C(=CN=C4C(=C3)Cl)C#N)NC5=CC(=C(C=C5)F)Cl [KIN001-266]
In short: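 Five library-drug doses spaced by √10 were pinned onto vehicle-anchored 1536-well plates of lung cancer cell lines that had been kept overnight at 37 °C. Cells went 5 days without medium change, then were fixed, permeabilised and Hoechst-stained together, imaged at 4× and counted by MetaXpress. Viability is the ratio of treated-well to vehicle-well nuclei, taken as a median over plates. Plates required control CV below 25% and at least one doubling.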

KIN001-266 + Trametinib = compound: CCN1CCC(CC1)N2C=C(N=N2)CNC3=CC4=C(C(=CN=C4C(=C3)Cl)C#N)NC5=CC(=C(C=C5)F)Cl [KIN001-266] + CC(=O)Nc1cccc(-n2c(=O)n(C3CC3)c(=O)c3c(Nc4ccc(I)cc4F)n(C)c(=O)c(C)c32)c1 [Trametinib] (partner 0.02 µM)
In short: (§1)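 Dosing by pin tool came one day after lung cancer cell lines were seeded in 1536-well plates, using either one drug or a fixed anchor-drug dose plus five library-drug doses (not always all listed) in √10 steps. After 5 days, nuclei were counted on 4× images. Relative viability is treated-well nuclei count divided by vehicle-well nuclei count, and values are medians of duplicate plates.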

KIN001-266 + Phenformin = compound: CCN1CCC(CC1)N2C=C(N=N2)CNC3=CC4=C(C(=CN=C4C(=C3)Cl)C#N)NC5=CC(=C(C=C5)F)Cl [KIN001-266] + N=C(N)NC(=N)NCCc1ccccc1 [Phenformin] (partner 250 µM)
In short: as §1

KIN001-266 + Olaparib = compound: CCN1CCC(CC1)N2C=C(N=N2)CNC3=CC4=C(C(=CN=C4C(=C3)Cl)C#N)NC5=CC(=C(C=C5)F)Cl [KIN001-266] + O=C(c1cc(Cc2n[nH]c(=O)c3ccccc23)ccc1F)N1CCN(C(=O)C2CC2)CC1 [Olaparib] (partner 8 µM)
In short: as §1

| Cell Line | relative viability (KIN001-266; 0.08 µM) | relative viability (KIN001-266; 0.253 µM) | relative viability (KIN001-266; 0.8 µM) | relative viability (KIN001-266; 2.53 µM) | relative viability (KIN001-266; 8 µM) | relative viability (KIN001-266 + Trametinib; first compound 0.08 µM) | relative viability (KIN001-266 + Trametinib; first compound 0.253 µM) | relative viability (KIN001-266 + Trametinib; first compound 0.8 µM) | relative viability (KIN001-266 + Trametinib; first compound 8 µM) | relative viability (KIN001-266 + Phenformin; first compound 0.08 µM) | relative viability (KIN001-266 + Phenformin; first compound 0.253 µM) | relative viability (KIN001-266 + Phenformin; first compound 0.8 µM) | relative viability (KIN001-266 + Phenformin; first compound 2.53 µM) | relative viability (KIN001-266 + Phenformin; first compound 8 µM) | relative viability (KIN001-266 + Olaparib; first compound 0.08 µM) | relative viability (KIN001-266 + Olaparib; first compound 0.253 µM) | relative viability (KIN001-266 + Olaparib; first compound 0.8 µM) | relative viability (KIN001-266 + Olaparib; first compound 8 µM) | relative viability (KIN001-266 + Trametinib; first compound 2.53 µM) | relative viability (KIN001-266 + Olaparib; first compound 2.53 µM) |
| --- | --- | --- | --- | --- | --- | --- | --- | --- | --- | --- | --- | --- | --- | --- | --- | --- | --- | --- | --- | --- |
| LCLC-97TM1 | 0.942 | 0.853 | 0.917 | 0.866 | 0.906 | 0.18 | 0.185 | 0.199 | 0.164 | 0.414 | 0.442 | 0.413 | 0.41 | 0.407 | 0.302 | 0.295 | 0.406 | 0.167 |  |  |
| HARA | 0.959 | 1.04 | 0.937 | 1.06 | 0.747 | 0.634 | 0.868 | 0.91 | 0.424 | 0.455 | 0.483 | 0.433 | 0.457 | 0.295 | 0.798 | 0.762 | 0.806 | 0.467 | 0.858 | 0.559 |
| HCC-78 | 0.964 | 0.998 | 0.913 | 0.99 | 0.956 | 0.747 | 0.705 | 0.667 | 0.753 | 0.714 | 0.664 |  | 0.656 | 0.806 | 0.832 | 0.793 | 0.767 | 0.677 | 0.838 | 0.841 |
| NCI-H1666 | 1.07 | 1 | 0.896 | 0.99 | 0.959 | 0.909 | 0.897 | 0.713 | 0.761 | 0.547 | 0.627 | 0.573 | 0.581 | 0.574 | 0.77 | 0.754 | 0.607 | 0.73 | 0.855 | 0.739 |
| NCI-H2347 | 1.04 | 1 | 1 | 0.989 | 0.582 | 0.304 | 0.323 | 0.282 | 0.22 | 0.405 | 0.428 | 0.435 | 0.519 | 0.24 | 0.619 | 0.593 | 0.507 | 0.479 | 0.278 | 0.568 |
| NCI-H838 | 0.935 | 0.967 | 0.961 | 0.949 | 0.829 | 0.535 | 0.494 | 0.557 | 0.385 | 0.668 | 0.624 | 0.595 | 0.574 | 0.427 | 0.775 | 0.811 | 0.764 | 0.471 | 0.465 | 0.68 |
| NCI-H2023 | 0.915 | 0.997 | 1.15 | 0.926 | 0.94 | 0.51 | 0.578 | 0.533 | 0.456 | 0.378 | 0.391 | 0.401 | 0.304 | 0.28 | 0.465 | 0.489 | 0.528 | 0.411 | 0.447 | 0.47 |
| 201T | 1.02 | 1 | 0.959 | 0.995 | 0.956 | 0.74 | 0.724 | 0.686 | 0.754 | 0.449 | 0.45 | 0.386 | 0.457 | 0.434 | 0.822 | 0.852 | 0.809 | 0.816 | 0.708 | 0.855 |
| NCI-H1915 | 1.02 | 0.971 | 0.982 | 1.07 | 0.935 | 0.312 | 0.302 | 0.298 | 0.223 | 0.365 | 0.379 | 0.354 | 0.379 | 0.36 | 0.253 | 0.25 | 0.241 | 0.211 | 0.293 | 0.234 |
| NCI-H2009 | 0.988 | 1.06 | 1 | 0.982 | 0.856 | 0.296 | 0.313 | 0.273 | 0.253 | 0.455 | 0.432 | 0.441 | 0.319 | 0.262 | 0.721 | 0.667 | 0.657 | 0.321 | 0.23 | 0.65 |
| BEN | 0.991 | 0.931 | 1.06 | 0.864 | 0.996 | 1.01 | 1.01 | 1.07 | 1.15 | 0.262 | 0.262 | 0.275 | 0.259 | 0.231 | 1 | 0.988 | 1.12 | 0.977 | 1.03 | 1.17 |
| PC-14 | 0.933 | 1.07 | 0.84 | 0.885 | 0.485 | 0.715 | 0.729 | 0.808 | 0.141 | 0.567 | 0.762 | 0.356 | 0.543 | 0.324 | 0.24 | 0.354 | 0.251 | 0.141 | 0.518 | 0.312 |
| SK-MES-1 | 1.02 | 1.02 | 0.992 | 0.942 | 0.783 | 0.564 | 0.562 | 0.551 | 0.47 | 0.648 | 0.695 | 0.693 | 0.519 | 0.459 | 0.783 | 0.651 | 0.73 | 0.492 | 0.522 | 0.492 |
| NCI-H727 | 1.03 | 0.966 | 0.843 | 0.904 | 0.656 | 0.431 | 0.384 | 0.391 | 0.402 | 0.612 | 0.615 | 0.509 | 0.595 | 0.364 | 0.679 | 0.649 | 0.626 | 0.531 | 0.391 | 0.683 |
| NCI-H1355 | 0.986 | 1.02 | 0.979 | 0.924 | 0.908 | 0.445 | 0.473 | 0.48 | 0.394 | 0.454 | 0.419 | 0.441 | 0.414 | 0.373 | 0.765 | 0.769 | 0.699 | 0.731 | 0.406 | 0.716 |
